In patent publication US20190092802A1, “ANTAGONISTS OF NK1 RECEPTORS DERIVED FROM CARBOHYDRATES, PRODUCTION METHOD AND MEDICAL USE” (CONSEJO SUPERIOR DE INVESTIGACIONES CIENTIFICAS (CSIC), priority 2015, published 2019):
Entries after “also recorded” stand apart in the source; their conditions may differ.

What was measured:
[1] = tested on: A549 human cells from lung adenocarcinoma; test: MTT cell viability assay, A549; format: cell-based; conditions: for IC50: A549, 48 hours exposure, MTT; for anticancer activity against the cancer line (in words): A549 lung cancer cells
[2] = tested on: MRC5 non-malignant human lung cells; test: MTT cell viability assay, MRC-5; format: cell-based
NK1 receptor [3] = target: T1, NK1 receptor (Homo sapiens, UniProt P25103); test: IP-One assay (SP-induced IP1 accumulation in CHO cells transfected with NK1); format: cell-based; parameters: expressed in transfected cells; host or cells: CHO cells, transient electroporation
Method: Non-essential amino acids were also added to the medium (Invitrogen).
Transient transfection of the cell lines was carried out by electroporation in a volume of 300 μL with a total of 10 μg DNA (pRK5 Neo-NK1 wild type) plasmid (using up to 500 ng of pRK5como carrier DNA to achieve 10 μg) and with 10^7 cells in the electroporation buffer (50 mM K2HPO4, 20 mM CH3COOK, 20 mM KOH and 26 mM MgSO4, pH 7.4). After electroporation (280 V, 1 mF, GeneZapper 450/2500; IBI, New Haven, Conn., USA), the cells were suspended in a complete medium and seeded on well culture plates with a density of 10^5 per well. The 96-well culture plates were first covered with polyornithine diluted in PBS, then incubated at 37° C. for 30 minutes and they were then washed with PBS before being seeded.
The activation and inhibition of the route of the IP by the NK1 receptor agonists and antagonists, respectively, was determined using the dynamic IP-One kit (Cisbio Bioassays, Bagnols-sur-Cèze, France). After transfection, 10^5 cells were distributed in 100 pll of a complete medium into a 96-well assay plate (Greiner Bio-One, Courtaboeuf, France). After 24 hours, the medium was eliminated and replaced by 40 μl of an incubation medium that contained the agonist and/or antagonist in an appropriate concentration.
Target sequence in this assay (P25103 whole entry, species assumed): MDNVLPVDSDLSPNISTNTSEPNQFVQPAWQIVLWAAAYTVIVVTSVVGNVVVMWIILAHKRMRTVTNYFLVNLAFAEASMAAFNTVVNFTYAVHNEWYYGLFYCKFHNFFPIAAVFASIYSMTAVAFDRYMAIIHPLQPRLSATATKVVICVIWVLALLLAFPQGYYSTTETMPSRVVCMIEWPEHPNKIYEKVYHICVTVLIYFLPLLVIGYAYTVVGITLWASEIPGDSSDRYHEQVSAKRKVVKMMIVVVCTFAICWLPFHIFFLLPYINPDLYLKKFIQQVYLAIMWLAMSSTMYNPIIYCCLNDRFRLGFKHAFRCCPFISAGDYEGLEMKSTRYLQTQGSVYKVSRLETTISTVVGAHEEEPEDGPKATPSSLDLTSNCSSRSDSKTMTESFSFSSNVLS

NK1 receptor [4] = target: T1, NK1 receptor; test: Displacement of marked SP ([125I]BH-SP); format: binding; conditions: Concentration 6.0E−05 M; marked SP 0.15 nM, 60 minutes at room temperature
Target sequence in this assay (P25103 whole entry): as the sequence (P25103 whole entry, species assumed) above

[5] = Homo sapiens, MRC5, MRC-5, 48 hours exposure

Compound	IC50 ([1]; Homo sapiens) [µM]	IC50 [2, 5] [µM]	anticancer activity against the cancer line (in words) [1]	% Inhibition of the control specific affinity (NK1 receptor [4]) [%]	also measured
C[C@@H](O[C@H]1OCCN(Cc2n[nH]c(=O)[nH]2)[C@H]1c1ccc(F)cc1)c1cc(C(F)(F)F)cc(C(F)(F)F)c1 [Aprepitant, reference compound]	15.7 ± 3.46	22.1 ± 6.92	–	–	–
COc1ccccc1CN[C@H]1C2CCN(CC2)[C@H]1C(c1ccccc1)c1ccccc1 [CP-96345, reference compound]	46.8 ± 8.89	57.9 ± 8.07	–	–	–
C[C@@H](O[C@H]1O[C@@H]2CO[C@@H](c3ccccc3)O[C@@H]2[C@H](O)[C@H]1OCc1ccc(F)cc1)c1cc(C(F)(F)F)cc(C(F)(F)F)c1 [Compound 2, (R)-{1-[3,5-bis-(trifluoromethyl)phenyl]ethyl} 2-O-p-fluorobenzyl-(R)-[4,5-O-benzylidene]-α-D-galactopyranoside]	19.3 ± 7.93	120 ± 3.45	most active; also recorded: matches those of cisplatin	≥100	NK1 receptor antagonist activity (in words) (NK1 receptor [3]; IP-One assay, inhibition of SP activity): excellent inhibitors of SP activity; also recorded: greatest antagonist activity
C[C@@H](O[C@H]1OC[C@@H]2OC(C)(C)O[C@@H]2[C@H]1OCc1ccc(F)cc1)c1cc(C(F)(F)F)cc(C(F)(F)F)c1 [Compound 8]	–	–	–	≥100	–
CC(=O)N[C@@H](Cc1c[nH]c2ccccc12)C(=O)OCc1cc(C(F)(F)F)cc(C(F)(F)F)c1 [L-732,138, reference compound]	–	–	–	–	Kinact (NK1 receptor [3]; inhibition of substance P (SP), dose-response curves, IP-One assay): 8.37E−08±2.63 M; SP inhibition (NK1 receptor [3]; ligand concentration of 10^−6M): 69%
(R)-{1-[3,5-bis-(trifluoromethyl)phenyl]ethyl} 2-O-p-fluorobenzyl-(R)-[4,5-O-benzylidene]-β-D-D-galactopyranoside [Compound 1]	–	–	most active	–	IC50 [1]: 28 ± 6.85 µM; IC50 ([2]; MRC-5, 48 hours exposure): 141 ± 1.82 µM
